This is an account of results in ChEMBL document CHEMBL1156829 (Proc Natl Acad Sci U S A, 2008).

Bounds are passed on as bounds.

Data set [1] relates to Plasmodium falciparum. The data set can be described thus: NOVARTIS: Inhibition of Plasmodium falciparum W2 (drug-resistant) proliferation in erythrocyte-based infection assay. It counts as functional, organism-based. The settings on record: Plasmodium falciparum, W2; read-out: EC50.
Data set [2] has as its system Plasmodium falciparum. The data set can be described thus: NOVARTIS: Inhibition of Plasmodium falciparum 3D7 (drug-susceptible) proliferation in erythrocyte-based infection assay. It counts as functional, organism-based. The following applies: Plasmodium falciparum, 3D7.
Data set [3] can be described thus: NOVARTIS: Cytotoxicity against human hepatocellular carcinoma cell line (Huh7). It counts as toxicity, cell-based, Huh-7. The following applies: Huh7 cells (hepatocellular carcinoma cell line).

Consider `OCC[n+]1c2ccccc2nc2ccc(N3CCOCC3)cc21.[O-][Cl+3]([O-])([O-])[O-]`, for which the results for the EC50 in data set [1] and in data set [2] were 0.0564 µM and 0.243 µM, respectively. In data set [3], this compound came in with a CC50 of 35 µM.
In the case of `CCN(CC)CCCC(C)Nc1cc(C=Cc2ccc([N+](=O)[O-])cc2)nc2cc(OC)ccc12` (stereo unspecified), the EC50 in data set [1] turned out to be 0.0323 µM; in data set [2], 0.0316 µM. Besides, the CC50 in data set [3] was 20.2 µM.
On the same counts, the results for `CCC1CN2CCc3cc(OC)c(OC)cc3C2CC1CC1NCCc2cc(OC)c(OC)cc21` (stereo unspecified) are 0.036 µM, 0.0357 µM and 23.7 µM.
`CCCCCCc1cc(O)c2c(c1)OC(C)(C)C1=C2CCN(C)C1`: the EC50 is 0.0313 µM in data set [1] and 0.0484 µM in data set [2]. The midpoint of cytotoxicity in data set [3], the CC50, lay at 20.6 µM.
With `Cc1cc(C)c2c(c1)c(-c1ccccc1)c(-c1ccccc1)n2CC(O)Cn1cnc(-c2ccccc2)c1-c1ccccc1` (stereo unspecified), the EC50 was found to be 0.155 µM in data set [1] and 1.35 µM in data set [2]. Further, in data set [3], the CC50 was > 100 µM.
For `CC(C)C(=O)NC(Nc1ccc([N+](=O)[O-])cc1)C(Cl)(Cl)Cl` (stereo unspecified) the same measures were 0.104 µM, 0.195 µM and 68.3 µM.
Turning to `CC(=O)O[C@H]1C(=O)[C@@]2(C)C([C@H](OC(=O)c3ccccc3)[C@]3(O)C[C@H](OC(=O)[C@@H](O)[C@@H](NC(=O)c4ccccc4)c4ccccc4)C(C)=C1C3(C)C)[C@]1(OC(C)=O)CO[C@@H]1C[C@@H]2O` (stereo partly specified), the EC50 came out at 0.152 µM in data set [1] and 0.658 µM in data set [2]. The CC50 in data set [3] was > 100 µM.
Consider `Cc1ncc([N+](=O)[O-])n1CCOC(=O)NC(Nc1ccc(Br)cc1)C(Cl)(Cl)Cl` (stereo unspecified), for which the EC50 was 0.152 µM in data set [1] and 0.229 µM in data set [2]. For the same compound, the CC50 in data set [3] is > 100 µM.
As for `O=C(Nc1cc(C(F)(F)F)ccc1N1CCOCC1)C(Cl)(Cl)Cl`, the EC50 in data set [1] worked out at 0.116 µM; in data set [2] it was 0.376 µM. For the same compound, half-maximal cytotoxicity in data set [3] (CC50) was put at 74.8 µM.
For `COC(=O)C1=C(C)NC2=C(C(=O)CC(c3ccc(Cl)cc3)C2)C1c1ccccc1` (stereo unspecified) the same measures were 0.152 µM, 0.342 µM and > 100 µM.
For `Cn1c(C(=O)c2cccc3ccccc23)nc2ccccc21` the same measures were 0.0326 µM, 0.00692 µM and 21.5 µM.
For `COCCOC(=O)NCc1ccc(Nc2c(C(C)(C)C)nc3cnccn23)cc1`, the EC50 in data set [1] is 0.0155 µM; in data set [2], 0.102 µM. Besides, the CC50 in data set [3] is > 10 µM.
Consider `Cc1cc(Cl)c(S(=O)(=O)N2CCSCC2)cc1OCC(=O)NC1CCCCC1`, for which the EC50 in data set [1] came out at 0.153 µM; in data set [2], 0.186 µM. The CC50 in data set [3] was > 100 µM.
For `C=CCNC(=S)N1CCc2c([nH]c3ccccc23)C1C(F)(F)F` (stereo unspecified) the same measures were 0.108 µM, 0.208 µM and 70.7 µM.
In the case of `COc1ccc(OC)c(-c2ccc(O)c(CN3CCCC(C)C3)c2)c1` (stereo unspecified), the EC50 in data set [1] worked out at 0.0945 µM; in data set [2], 0.131 µM. Besides, half-maximal cytotoxicity in data set [3] (CC50) was put at 61 µM.
On to `CCOc1cc(C2CC(=O)NC3=C2C(=O)CC(c2ccc(OC)c(OC)c2)C3)ccc1O` (stereo unspecified), for which the EC50 was 0.155 µM in data set [1] and 0.781 µM in data set [2]. The CC50 in data set [3] was > 100 µM.
For `CCN(CC)CCNc1ccnc2cc3ccccc3cc12` the same measures were 0.0313 µM, 0.0286 µM and 20.3 µM.
For `Cc1ccc(C)c(NC(=O)C2CCCN(c3nnc(N4CCCC4=O)s3)C2)c1` (stereo unspecified) the same measures were 0.154 µM, > 5.75 µM and > 100 µM.
On to `CCN1C(=O)N(CC)C(NNC(N)=S)C1NNC(N)=S` (stereo unspecified), for which the EC50 in data set [1] was 0.151 µM; in data set [2] it was 0.123 µM. Moreover, in data set [3], the CC50 was > 100 µM.
For `CSc1nc2nc(C)c(Cc3cccc(F)c3)c(C)n2n1` the same measures were 0.152 µM, 0.297 µM and > 100 µM.
For `C#CCNC(=O)c1ccc(OC2CCN(CC(c3ccccc3)c3ccccc3)CC2)c(OC)c1` the same measures were 0.0883 µM, 0.207 µM and 55 µM.
On the same counts, the results for `CCOC(=O)c1nnn(-c2nonc2N)c1-c1ccc(Cl)cc1` are 0.16 µM, 0.397 µM and > 100 µM.
In the case of `O=C(NCc1ccccc1)c1cnc(NCCC(c2ccccc2)c2ccccc2)nc1NC1CC1`, the EC50 in data set [1] was < 0.0158 µM; in data set [2], > 1.16 µM. Also, the CC50 in data set [3] is > 10 µM.
For the compound `Cc1ccc(NC(=O)N(CCN(C)C)Cc2cc3cc4c(cc3[nH]c2=O)OCCO4)cc1`, the EC50 was 0.157 µM in data set [1] and 0.984 µM in data set [2]. Also, the CC50 in data set [3] was > 100 µM.
On the same counts, the results for `COc1ccc(CCNc2nc(NCCCN3CCCCC3C)ncc2C(=O)NCc2ccccc2)cc1OC` (stereo unspecified) are < 0.0161 µM, 0.323 µM and > 10 µM.
On to `COc1ccc(-c2c[n+](CC(=O)c3ccc(Cl)cc3)c3n2CCC3)cc1`, for which the EC50 came out at 0.15 µM in data set [1] and 0.641 µM in data set [2]. For the same compound, the CC50 in data set [3] was > 100 µM.
On the same counts, the results for `O=S(=O)(c1ccc(Cl)cc1)N1CCN(C(=S)NCC2CCCO2)CC1` (stereo unspecified) are 0.149 µM, 0.653 µM and > 100 µM.
On the same counts, the results for `COCC(=O)Oc1ccccc1-c1nc2cc(C)ccn2c1NC(C)(C)CC(C)(C)C` are < 0.00915 µM, 0.799 µM and > 6.2 µM.
For the compound `CCOC(=O)C1=C(N)N(c2cccc([N+](=O)[O-])c2)C2=C(C(=O)CC(C)(C)C2)C1c1ccc(Br)cc1` (stereo unspecified), the half-maximal effective concentration (EC50) in data set [1] came out at 0.15 µM; in data set [2] it was 1.26 µM. In data set [3], the CC50 was > 100 µM.
In the case of `CC(C(=O)NCCCN)N(Cc1ccccc1)S(C)(=O)=O` (stereo unspecified), the EC50 is 0.0162 µM in data set [1] and > 1.25 µM in data set [2]. In addition, in data set [3], the CC50 is > 10 µM.
On the same counts, the results for `O=C1CC(C(=O)N2CCC(c3nc(-c4cccnc4)ncc3-c3ccccc3)CC2)c2ccccc21` (stereo unspecified) are 0.15 µM, 0.459 µM and > 100 µM.
On the same counts, the results for `CC(CNC(=O)c1cn(C2CCCCC2)cc(C(=O)NC(C)(C)C)c1=O)c1ccccc1` (stereo unspecified) are < 0.015 µM, 0.174 µM and > 10 µM.
For `CCOC(=O)C1=C(CC)NC2=C(C(=O)CC(C)(C)C2)C1c1ccccc1F` (stereo unspecified) the same measures were 0.151 µM, 0.459 µM and > 100 µM.
Regarding `c1cc(-c2cccc3cccnc23)nc(N2CCN(CCN3CCCC3)CC2)c1`, the EC50 in data set [1] was found to be 0.103 µM; in data set [2], 0.0584 µM. For the same compound, the CC50 in data set [3] was determined as 70.1 µM.
On the same counts, the results for `COc1cc2nc(NCc3cccnc3)n3nc(-c4ccccc4)nc3c2cc1OC` are 0.147 µM, 0.182 µM and > 100 µM.
On the same counts, the results for `COC(=O)C1=C(C)N/C(=C\c2cc(C)n(-c3cc(C)ccc3C)c2C)C1=O` are 0.0151 µM, 0.0124 µM and > 10 µM.
On the same counts, the results for `CC(C)CN1C(=O)c2ccccc2C(C(=O)Nc2cc(F)ccc2F)C1c1cccs1` (stereo unspecified) are 0.15 µM, 0.26 µM and > 100 µM.
Consider `COC(=O)c1c(-c2c(Cl)cccc2Cl)noc1NC(=O)NN1CCCCC1`, for which the EC50 in data set [1] came to 0.151 µM; in data set [2], 0.277 µM. For the same compound, in data set [3], the CC50 was > 100 µM.
On the same counts, the results for `O=C(CN1CCN(C(=O)c2ccccc2)CC1)Nc1ccc(-c2nc3cc(NC(=O)CN4CCN(C(=O)c5ccccc5)CC4)ccc3o2)cc1` are 0.146 µM, 0.235 µM and > 100 µM.
As for `CC(C)CC(N)C(=O)N1CCn2c(nc(-c3ccccc3)c2Nc2ccc3c(c2)OCO3)C1` (stereo unspecified), the EC50 in data set [1] came to 0.122 µM; in data set [2], 0.119 µM. Besides, the CC50 in data set [3] is > 79.5 µM.
For `CCOC(=O)C1CCN(C(c2cc3cc(OC)c(OC)cc3[nH]c2=O)c2nnnn2Cc2ccccc2)CC1` (stereo unspecified) the same measures were 0.158 µM, 0.419 µM and > 100 µM.
Take `CCOC(=O)CCC(=O)N(C)CCCNc1ccnc2cc(Cl)ccc12`: the EC50 in data set [1] was < 0.0156 µM; in data set [2], 0.673 µM. In data set [3], the CC50 is > 10 µM.
For `CCN1CCN(Cc2c(O)ccc3c(=O)c(Oc4cccc(C)c4)c(C(F)(F)F)oc23)CC1` the same measures were 0.161 µM, 1.13 µM and > 100 µM.
As for `O=C1N(Cc2cc3ccccc3s2)CC2CN(Cc3ccsc3)CCN12` (stereo unspecified), the figures for the EC50 in data set [1] and in data set [2] were 0.153 µM and 0.107 µM, respectively. For the same compound, the CC50 in data set [3] was > 100 µM.
For `COC(=O)[C@@H]1C[C@@H](NC(=O)c2ccc(OC)cc2OC)CN1Cc1ccc(C(F)(F)F)cc1` the same measures were 0.159 µM, 0.347 µM and > 100 µM.
As for `CN(CCCNc1ccnc2cc(Cl)ccc12)C(=O)c1ccc(-c2ccccc2)cc1`, the results for the EC50 in data set [1] and in data set [2] were < 0.0156 µM and 0.326 µM, respectively. The compound further came in with a CC50 in data set [3] of 10.1 µM.
Take `CC(=O)Nc1c(NCc2ccccc2)c2ccccc2sc1=O`: the EC50 in data set [1] amounted to 0.154 µM; in data set [2], 0.505 µM. Also, the CC50 in data set [3] was > 100 µM.
On the same counts, the results for `CCN(CC)CCN1C(=O)c2ccccc2NC1c1ccc(N(C)C)cc1` (stereo unspecified) are 0.157 µM, 0.285 µM and > 100 µM.
For `COC(=O)C1=CNC=C(C(=O)OC)C1c1ccc(Cl)c(Cl)c1` the same measures were 0.105 µM, 0.114 µM and > 64.9 µM.
Turning to `OC(CNCc1ccccc1)Cn1c2ccc(Br)cc2c2cc(Br)ccc21` (stereo unspecified), the EC50 was 0.0135 µM in data set [1] and 0.311 µM in data set [2]. Besides, in data set [3], the CC50 amounted to 9.3 µM.
As to `Cc1cc(C)n(-c2cc(NN=Cc3cc(Br)ccc3O)nc(C)n2)n1`, the 50% effective concentration (EC50) in data set [1] came out at 0.153 µM; in data set [2], 0.237 µM. Besides, the CC50 in data set [3] is > 100 µM.
Consider `COc1ccccc1NC(=O)N(Cc1ccccc1)C(C)c1nc2ccccc2c(=O)n1-c1cc(C)ccc1OC` (stereo unspecified), for which the EC50 is < 0.0156 µM in data set [1] and 0.344 µM in data set [2]. Besides, the CC50 in data set [3] was > 10 µM.

As usually defined, the EC50 is the concentration giving half of the maximal effect. Broadly, the CC50 is the concentration giving 50% cytotoxicity. Lower therefore signals greater toxicity to the cells.
